Results from publication PMC10385636, “Inhibition Mechanism of Chitooligosaccharide-Polyphenol Conjugates toward Polyphenoloxidase from Shrimp Cephalothorax” (Molecules, 2023).

Tested on: T1, PPO (polyphenoloxidase from Pacific white shrimp cephalothorax)
T1 construct: gene proPO; crude native extract of cephalothorax powder; not purified; isoenzyme not identified (hemocyanin-derived activity not excluded); docking model 3WKY is not the assayed protein
Assay: dopachrome absorbance at […] nm, Lineweaver-Burk
Assay type: biochemical, Penaeus vannamei
Conditions: no inhibitor (0 mg/mL); crude extract; pH 6.0, 45 °C per activity assay; unit as in table footnote but substrate was dosed 2.5-25 mM, so unit is doubtful (possibly mM)

- Concentration (mg/mL) / 0: 7.0695 mg/mL
Compound: N[C@@H](Cc1ccc(O)c(O)c1)C(=O)O [L-DOPA]
